Biological target: Mushroom Tyrosinase (Agaricus bisporus, UniProt C7FF04)
Test: Comparative tyrosinase inhibitory activity (dopachrome optical density at 475 nm)
Assay type: biochemical
Protocol: All measurements were performed at room temperature (24 C) with a Beckman Coulter DU-640 spectrophotometer at a scan speed of 1200 nm/min with a spectral range from 300 to 700 nm.
Buffer solution • KH2PO4 99.8% & KOH 85+% (pH 7.4, 100 mM) • Mol. Wt. 136.09, VWR and Sigma-Aldrich • KH2PO4 (1362 mg) dissolved in distilled water (100 ml) and pH adjusted to 7.4 with a 2 M KOH solution • 2. Mushroom Tyrosinase solution (240 units per 1 ml) • 2440 units/mg, Sigma-Aldrich • Tyrosinase (2.5 mg) dissolved in 25 ml of distilled water • 3. L-DOPA solution (6.3 mM) • Mol. Wt. 197, Sigma-Aldrich • 33.1 mg are dissolved in distilled water (25 ml) • 4. L-Tyrosine solution (1.3 mM) • Mol. Wt. 181.2, Sigma-Aldrich • 23.5 mg are dissolved in distilled water (100 ml) • 5. Hydrogen peroxide solution (5 mM) • Sigma-Aldrich • 1/100 of 0.9/25 vol. dilution of a 50% wt. solution b) Skin Lightening Ingredients • 5. Emblica™ antioxidant (5 mM)—Lot # CA0106007 • Average Mol. Wt. 729, EMD Chemicals / Merck KGaA • Emblica (18.2 mg) dissolved in distilled water (5 ml) • 6. […]
The stock solutions were added in an orderly manner with quantities according to Table 1 as to obtain a final total volume of 3.0 ml for each preparation. […] After 15 min of reaction time, the spectra were recorded between 300 and 700 nm and the optical density at 475 nm (Dopachrome) measured.

Mushroom Tyrosinase, sequence (C7FF04 1-392): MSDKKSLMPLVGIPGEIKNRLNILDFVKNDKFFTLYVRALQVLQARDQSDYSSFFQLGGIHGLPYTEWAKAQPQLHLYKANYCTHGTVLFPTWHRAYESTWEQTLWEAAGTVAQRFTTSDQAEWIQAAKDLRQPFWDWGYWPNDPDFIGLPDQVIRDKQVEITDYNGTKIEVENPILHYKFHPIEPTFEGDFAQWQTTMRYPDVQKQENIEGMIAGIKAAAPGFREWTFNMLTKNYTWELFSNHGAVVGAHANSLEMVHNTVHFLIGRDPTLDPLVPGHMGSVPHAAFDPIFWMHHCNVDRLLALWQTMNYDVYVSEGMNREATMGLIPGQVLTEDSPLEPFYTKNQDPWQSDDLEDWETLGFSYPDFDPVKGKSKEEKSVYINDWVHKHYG
Mushroom Tyrosinase, sequence (G1K3P4 entry or part of it, further chain): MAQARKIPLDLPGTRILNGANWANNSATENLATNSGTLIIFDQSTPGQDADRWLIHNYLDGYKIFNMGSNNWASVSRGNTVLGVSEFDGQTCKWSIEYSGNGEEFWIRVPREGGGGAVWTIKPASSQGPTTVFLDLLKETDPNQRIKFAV

Oc1ccc(O)cc1 [Hydroquinone]
inhibitory activity against tyrosinase (in words) (DOPA as substrate): less effective | inhibitory activity against tyrosinase (in words) (tyrosine used as a substrate): excellent inhibitory activity
